Test results from US20250263416A1, “SPPL2a INHIBITORS” (Incyte Corporation, priority 2024, published 2025).
“Also recorded” adds a separate entry of the source.

How the values were obtained:
human SPPL2a [1] = biological target: T1, human SPPL2a (Homo sapiens, UniProt Q8TCT8); test: Nuclear translocation imaging assay for human SPPL2a (SPPL2a reporter U2OS cell line); format: cell-based; settings: U2OS reporter cells, 24 h incubation
T1 construct: expressed in transfected cells; host or cells: U2OS (SPPL2a reporter cell line)
T1 sequence (Q8TCT8 26-520): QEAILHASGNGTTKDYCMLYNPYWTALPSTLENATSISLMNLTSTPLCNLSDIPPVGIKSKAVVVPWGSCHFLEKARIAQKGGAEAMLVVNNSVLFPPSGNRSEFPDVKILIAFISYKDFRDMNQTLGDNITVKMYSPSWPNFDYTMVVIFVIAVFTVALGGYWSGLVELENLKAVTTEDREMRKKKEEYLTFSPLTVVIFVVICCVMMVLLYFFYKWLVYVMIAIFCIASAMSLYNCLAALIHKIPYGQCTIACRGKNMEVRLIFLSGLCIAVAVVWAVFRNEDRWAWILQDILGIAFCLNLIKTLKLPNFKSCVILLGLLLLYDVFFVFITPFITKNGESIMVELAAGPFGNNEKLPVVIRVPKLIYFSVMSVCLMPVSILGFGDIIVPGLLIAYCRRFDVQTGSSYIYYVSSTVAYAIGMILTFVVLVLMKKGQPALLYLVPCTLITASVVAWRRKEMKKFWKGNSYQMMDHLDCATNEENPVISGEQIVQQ
Description: The nuclear translocation imaging assays for human SPPL2a were performed using an SPPL2a reporter U2OS cell line as previously described (Velcicky et al 2018, Zhang et al 2017). These cells stably express human SPPL2a and a doxycycline inducible eGFP TNFα (aa 1-76) NTF fusion protein (SPPL2a substrate). Both Example 1 and Example A were added at indicated concentrations and cells were incubated for 24 h, washed, and fixed. Nuclei were stained with DAPI. Images were acquired on a confocal fluorescence microscope system LSM-800 (Carl Zeiss). Image data was analyzed by using mid-section from Z-stack images of at least 10 individual cells per sample. All data is presented as mean+SEM. Statistical significance was calculated with the ANOVA test using GraphPad Prism™ 10.

[2] = test system: Imiquimod (IMQ)-induced psoriasis mouse model; test: Imiquimod (IMQ)-induced psoriasis mouse model; format: in vivo, BALB/c female mice; settings: 15 mg/kg PO BID
Description: A comparative study was performed to evaluate the efficacy of the deuterated-inhibitor Example 1 to Example A in the mouse model of psoriasis. Briefly, BALB/c female mice (7-8 week age) were shaved on the dorsal skin and 62.5 mg of IMQ cream was applied daily until day 9. Simultaneously, 15 mg of IMQ cream was applied on one ear daily until day 9. Example 1 and Example A were given orally (PO) at 15 mg/kg, BID. Mice were monitored and clinical signs of psoriasis were recorded (PSI score), both on the dorsal skin (erythema, scaling & thickness) and on the IMQ-applied ear (thickness). All data is presented as mean+SEM. For comparison of more than two groups, ANOVA was used. Pearson product moment correlation was used to test for correlations. All statistical analysis was performed using GraphPad Prism™ 10.

[3] = In vivo epimerization and PK, statements covering all three preclinical models; design: species or system Sprague Dawley rats, beagle dogs, cynomolgus monkeys; settings: for retention of deuterium in the process of epimerization: all species studied; for in vivo epimerization at the chiral carbon in the 7-membered ring: rat, monkey and dog models, PO; for exposures and PK (other than epimerization) across species: rats, monkeys, dogs
Description: These factors may lead to accumulation and potenial toxicity. The effect on epimerization by substitution at the chiral carbon was tested by comparing Example A, Example 1, and Example 29 in the following preclinical in vivo pharmacokinetic models: Sprague Dawley rats, beagle dogs, and cynomolgus monkeys.
Two groups of male Sprague Dawley rats (n=3 each) received either a single 10 mg/kg PO dose of Example A or Example 1 in a vehicle consisting of 0.5% methylcellulose in water. Blood samples were collected at 0.25, 0.5, 1, 2, 4, and 6 hours postdose.
Male Sprague Dawley rats (n=3 each) received a single 3 mg/kg PO dose of Example 29 in a vehicle consisting of 5% dimethylacetamide (DMAC) in 50 mM citrate buffer w/0.5% methylcellulose. Blood samples were collected at predose, 0.25, 0.5, 1, 2, 4, 6, 8, 12, and 24 hours postdose.
Three groups of male cynomolgus monkeys (n=2 each) received either a single 3 mg/kg PO dose of Example A, Example 1, or Example 29 in a vehicle consisting of 5% dimethylacetamide (DMAC) in 50 mM citrate buffer w/0.5% methylcellulose. Blood samples were collected at predose, 0.25, 0.5, 1, 2, 3, 4, 6, 8, 12, and 24 hours postdose.
Three groups of male beagle dogs (n=2 each) received either a single 3 mg/kg PO dose of Example A, Example 1, or Example 29 in a vehicle consisting of 5% dimethylacetamide (DMAC) in 50 mM citrate buffer w/0.5% methylcellulose. Blood samples were collected at predose, 0.25, 0.5, 1, 2, 3, 4, 6, 8, 12, 24 and 48 hours postdose.
All blood samples were collected using EDTA as the anticoagulant and centrifuged to obtain plasma. Plasma concentrations of Example A, Example 1, and their respective diastereomers were determined under non-GLP conditions using standard reverse phase LC-MS/MS bioanalytical methods. The individual plasma concentration-time data was used to determine the area under the curve (AUC) values using GraphPad Prism (v9.3.1).

human SPPL2a [4] = biological target: T1, human SPPL2a; test: Western blot assay of TNFα-GFP cleavage in U2OS cells expressing human SPPL2a; format: cell-based; settings: SPPL2a-U2OS reporter cells, 24 h
Description: To confirm the cleavage of TNF-α in the U2OS cells that express human SPPL2a, a western blot assay was performed. The same cell line used for the imaging assays were used; these cells express human SPPL2a constitutively and an eGFP-labelled TNFα (aa 1-76) NTF substrate under a doxycycline promotor. In the presence of SPPL2a activity, TNFα-GFP is cleaved at the NTF, resulting in a single 54-56 kDa band (lower MW). If SPPL2a activity is inhibited, TNFα GFP processing is abrogated resulting in a higher molecular weight band (60-62 kDa; complete inhibition) and or both 54-56 kDa and 60-62 kDa bands (incomplete inhibition, smeared appearance) on the blot. Both Example 1 and Example A were added at indicated concentrations, and cells were incubated for 24 h with the inhibitors. Total cell lysated were prepared in ice cold-1X RIPA buffer containing protease inhibitor cocktail (AKR-190, Cell BioLabs). Lysates were collected and quantified for the total protein on NanoDrop using BCA kit (23227, Thermo Scientific). […] To detect cleaved and un-cleaved TNFα-GFP fragments, anti-GFP antibody (AF4240, R&D Biosystems) was used as a primary antibody and detected using anti-goat detection module (DM-006, ProteinSimple) according to the manufacturer's protocol. Data was analyzed using ProteinSimple compass software.

[5] = test system: Collagen-Induced Arthritis (CIA) mouse model; test: Collagen-induced arthritis (CIA) mouse model; format: in vivo, DBA-1 mice; settings: 50 mg/kg dose, compared to the vehicle
Excerpt: Female DBA-1 mice (8-9 weeks old) were used in the CIA mouse model. This model is widely used to evaluate efficacy of immunomodulatory drugs on autoimmune diseases, such as arthritis. DBA/1 mice develop collagen-induced arthritis (CIA) after immunization with bovine type II collagen emulsified in complete Freund's adjuvant (CFA), followed by a booster dose 21 days later. Both the immunizations were given subcutaneously, approximately 25 mm from the base of the tail on opposite sides. Immunizations were performed under a short duration isoflurane anesthesia. Mice were evaluated for the disease progression up to 45 days. […] Statistical significance was determined using Two-way ANOVA with multiple comparison tests to compare all groups to the vehicle.

| Structure (SMILES) | inhibition of nuclear translocation of TNFα-GFP (human SPPL2a [1]) | dorsal PSI scores [2] | ear thickness measurements [2] | clinical signs of psoriasis disease ([2]; compared to vehicle group) | Mouse IL-12 level in plasma ([2]; terminal day) | Mouse TNFα level in plasma ([2]; terminal day) | retention of deuterium in the process of epimerization [3] | in vivo epimerization at the chiral carbon in the 7-membered ring [3] | exposures and PK (other than epimerization) across species [3] | TNFα-GFP cleavage inhibition (SPPL2a activity inhibition) (human SPPL2a [4]) | clinical signs of CIA [5] |
| --- | --- | --- | --- | --- | --- | --- | --- | --- | --- | --- | --- |
| [2H][C@@]1(NC(=O)[C@H](C)CNC(=O)c2sc(C(=O)NC)nc2C)C(=O)N2CCCN2Cc2ccccc21 [Example 1, N^2,4-Dimethyl-N^5—((R)-2-methyl-3-oxo-3-(((S)-11-oxo-2,3,10,11-tetrahydro-1H,5H-benzo[d]pyrazolo[1,2-a][1,2]diazepin-10-yl-10-d)amino)propyl)thiazole-2,5-dicarboxamide] | inhibited; also recorded: comparable and significant TNFα-GFP inhibition of nuclear translocation | alleviate | alleviate | significantly reduced | significant reduction | significant reduction | retained | reduction of in vivo epimerization; also recorded: observed in all three models | consistent | SPPL2a activity inhibition; also recorded: Comparable and significant TNFα-GFP cleavage inhibition | significantly reduced |
| [2H]C([2H])([2H])NC(=O)c1nc(C)c(C(=O)NC[C@@H](C)C(=O)N[C@]2([2H])C(=O)N3CCCN3Cc3ccccc32)s1 [Example 29, 4-Methyl-N2-(methyl-d3)—N^5—((R)-2-methyl-3-oxo-3-(((S)-11-oxo-2,3,10,11-tetrahydro-1H,5H-benzo[d]pyrazolo[1,2-a][1,2]diazepin-10-yl-10-d)amino)propyl)thiazole-2,5-dicarboxamide] |  |  |  |  |  |  | retained | observed in all three models | consistent |  |  |
